Measurements reported in US20020002171A1, “Materials and methods for killing nematodes and nematode eggs” (priority 2000, published 2002).

Tested on: Caenorhabditis elegans
Test: C. elegans L1 nematicidal dose response in 96-well plates, 5 day visual score (Example 2; same procedure for Example 7, Table 3)
Type: in vivo
Design: key to 5 Day Visual Score V1 / 5 Day Visual Score V2 / 5 Day Visual Score V3 / 5 Day Visual Score V4 / 5 Day Visual Score V6 / 5 Day Visual Score V5 / Initial HTS Run Visual Score / Follow-up HTS Run Visual Score: Dead: only stiff L1s (no movement); Dead (L4): worms are dead, but at a later larval stage; majority of worms are L1 (based on size) worms move when plate is tapped; majority of worms are L2 (based on size); majority of worms are L3 (based on size); majority of worms are L4 (based on size); AD: majority of worms are adult; #AD: 5 adult worms or less; B!: sterile (0-25 progeny); B: low broodsize (25-100 progeny); ˜B: moderate broodsize (100-250 progeny); <: reduced broodsize (250-500 progeny); OK: no effect (˜1000+ progeny)
Conditions: for 5 Day Visual Score V1 / 5 Day Visual Score V3 / 5 Day Visual Score V4 / 5 Day Visual Score V5 / 5 Day Visual Score V6 / 5 Day Visual Score V2: dose response; for 5 Day Visual Score V1: dilution V1, 5 day; for 5 Day Visual Score V3: dilution V3, 5 day; for 5 Day Visual Score V4: dilution V4, 5 day; for 5 Day Visual Score V5: dilution V5, 5 day; for 5 Day Visual Score V6: dilution V6, 5 day; for 5 Day Visual Score V2: dilution V2, 5 day
How it was run: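 Scoring was by eye at 100× on day 5, after incubation at 20° C, of 20 C. elegans L1s per well fed 1% E. coli HB101 in NGM. Compound columns V1–V6 spanned 70 μM to 0.3 μM in 3-fold steps, with 1.4% DMSO in the top well and as control.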

Compound: CN(Cc1ccccc1)c1nc(NCc2ccccc2C(F)(F)F)ns1 [compound 323]
- Follow-up HTS Run % Run: 120%
- Follow-up HTS Run Visual Score: L4/AD/B!
- Follow-up HTS Run mOD: 193 mOD
- Initial HTS Run % Run: 110%
- Initial HTS Run Visual Score: L3/L4/AD/B!-Clear
- Initial HTS Run mOD: 121 mOD
- 5 Day Visual Score V1: L4#AD/B!
- 5 Day Visual Score V3: OK (no effect (˜1000+ progeny))
- 5 Day Visual Score V4: < (reduced broodsize (250-500 progeny))
- 5 Day Visual Score V5: OK (no effect (˜1000+ progeny))
- 5 Day Visual Score V6: OK (no effect (˜1000+ progeny))

Compound: Fc1ccc(N2CCN(c3nc(NCc4ccccc4)ns3)CC2)cc1 [compound 324]
- Follow-up HTS Run % Run: 34%
- Follow-up HTS Run mOD: 54 mOD
- Initial HTS Run % Run: 114%
- Initial HTS Run mOD: 125 mOD
- 5 Day Visual Score V1: L1
- 5 Day Visual Score V4: OK (no effect (˜1000+ progeny))
- 5 Day Visual Score V5: < (reduced broodsize (250-500 progeny))
- 5 Day Visual Score V6: OK (no effect (˜1000+ progeny))

Compound: CCN(c1nc(NCc2ccccc2)ns1)C1CCCCC1 [compound 325]
- Follow-up HTS Run % Run: 111%
- Follow-up HTS Run Visual Score: L4/AD/B
- Follow-up HTS Run mOD: 179 mOD
- Initial HTS Run % Run: 103%
- Initial HTS Run Visual Score: L3/L4/AD/B
- Initial HTS Run mOD: 113 mOD
- 5 Day Visual Score V2: #AD/˜B
- 5 Day Visual Score V3: < (reduced broodsize (250-500 progeny))
- 5 Day Visual Score V4: < (reduced broodsize (250-500 progeny))
- 5 Day Visual Score V5: < (reduced broodsize (250-500 progeny))
- 5 Day Visual Score V6: OK (no effect (˜1000+ progeny))

Compound: CCN(Cc1ccccc1)c1nc(NCc2ccccc2)ns1 [compound 326]
- Follow-up HTS Run % Run: 110%
- Follow-up HTS Run mOD: 177 mOD
- Initial HTS Run % Run: 95%
- Initial HTS Run mOD: 105 mOD
- 5 Day Visual Score V4: OK (no effect (˜1000+ progeny))
- 5 Day Visual Score V5: OK (no effect (˜1000+ progeny))
- 5 Day Visual Score V6: OK (no effect (˜1000+ progeny))

Compound: C=CCN(CC=C)c1nc(NCc2ccccc2)ns1 [compound 327]
- Follow-up HTS Run % Run: 106%
- Follow-up HTS Run mOD: 171 mOD
- Initial HTS Run % Run: 105%
- Initial HTS Run Visual Score: L2/L3(Dead L3)
- Initial HTS Run mOD: 115 mOD
- 5 Day Visual Score V1: Dead
- 5 Day Visual Score V2: B (low broodsize (25-100 progeny))
- 5 Day Visual Score V3: ˜B (moderate broodsize (100-250 progeny))
- 5 Day Visual Score V4: OK (no effect (˜1000+ progeny))
- 5 Day Visual Score V5: OK (no effect (˜1000+ progeny))
- 5 Day Visual Score V6: OK (no effect (˜1000+ progeny))

Compound: CN(Cc1ccccc1)c1nc(NCc2ccccc2)ns1 [compound 328]
- Follow-up HTS Run % Run: 121%
- Follow-up HTS Run mOD: 195 mOD
- Initial HTS Run % Run: 120%
- Initial HTS Run mOD: 132 mOD
- 5 Day Visual Score V1: L1
- 5 Day Visual Score V2: L1
- 5 Day Visual Score V5: < (reduced broodsize (250-500 progeny))

Compound: Cc1cccc(C)c1N1CCN(c2nc(NC3CCCCCCCCCCC3)ns2)CC1 [compound 329]
- Follow-up HTS Run % Run: 78%
- Follow-up HTS Run Visual Score: Dead
- Follow-up HTS Run mOD: 125 mOD
- Initial HTS Run % Run: 100%
- Initial HTS Run Visual Score: Dead (L2/L3)
- Initial HTS Run mOD: 110 mOD
- 5 Day Visual Score V1: Dead
- 5 Day Visual Score V2: Dead
- 5 Day Visual Score V4: OK (no effect (˜1000+ progeny))
- 5 Day Visual Score V5: OK (no effect (˜1000+ progeny))
- 5 Day Visual Score V6: OK (no effect (˜1000+ progeny))

Compound: CCCCCCCCCCCCCCCCCCN(C)c1nc(NC2CCCCCCCCCCC2)ns1 [compound 330]
- Follow-up HTS Run % Run: 56%
- Follow-up HTS Run Visual Score: Dead
- Follow-up HTS Run mOD: 90 mOD
- Initial HTS Run % Run: 107%
- Initial HTS Run Visual Score: Dead (L2/L3)
- Initial HTS Run mOD: 118 mOD
- 5 Day Visual Score V1: Dead
- 5 Day Visual Score V2: Dead
- 5 Day Visual Score V4: OK (no effect (˜1000+ progeny))
- 5 Day Visual Score V5: OK (no effect (˜1000+ progeny))
- 5 Day Visual Score V6: OK (no effect (˜1000+ progeny))

Compound: CCCCC(CC)CN(CC(CC)CCCC)c1nc(NC2CCCCCCCCCCC2)ns1 (centres unmarked) [compound 331]
- Follow-up HTS Run % Run: 85%
- Follow-up HTS Run Visual Score: Dead
- Follow-up HTS Run mOD: 137 mOD
- Initial HTS Run % Run: 95%
- Initial HTS Run Visual Score: Dead
- Initial HTS Run mOD: 104 mOD
- 5 Day Visual Score V1: Dead
- 5 Day Visual Score V2: Dead
- 5 Day Visual Score V3: Dead
- 5 Day Visual Score V4: OK (no effect (˜1000+ progeny))
- 5 Day Visual Score V5: OK (no effect (˜1000+ progeny))
- 5 Day Visual Score V6: OK (no effect (˜1000+ progeny))

Compound: CCCCN(CC)c1nc(NC2CCCCCCCCCCC2)ns1 [compound 332]
- Follow-up HTS Run % Run: 75%
- Follow-up HTS Run Visual Score: Dead
- Follow-up HTS Run mOD: 121 mOD
- Initial HTS Run % Run: 92%
- Initial HTS Run Visual Score: Dead
- Initial HTS Run mOD: 101 mOD
- 5 Day Visual Score V1: Dead
- 5 Day Visual Score V2: Dead
- 5 Day Visual Score V3: L1
- 5 Day Visual Score V4: OK (no effect (˜1000+ progeny))
- 5 Day Visual Score V5: OK (no effect (˜1000+ progeny))
- 5 Day Visual Score V6: OK (no effect (˜1000+ progeny))

Compound: CCCCN(Cc1ccccc1)c1nc(NC2CCCCCCCCCCC2)ns1 [compound 333]
- Follow-up HTS Run % Run: 76%
- Follow-up HTS Run Visual Score: Dead
- Follow-up HTS Run mOD: 123 mOD
- Initial HTS Run % Run: 93%
- Initial HTS Run Visual Score: Dead
- Initial HTS Run mOD: 102 mOD
- 5 Day Visual Score V1: Dead
- 5 Day Visual Score V2: Dead
- 5 Day Visual Score V3: Dead
- 5 Day Visual Score V4: OK (no effect (˜1000+ progeny))
- 5 Day Visual Score V5: OK (no effect (˜1000+ progeny))
- 5 Day Visual Score V6: OK (no effect (˜1000+ progeny))

Compound: C=CCN(CC=C)c1nc(NC2CCCCCCCCCCC2)ns1 [compound 334]
- Follow-up HTS Run % Run: 88%
- Follow-up HTS Run mOD: 141 mOD
- Initial HTS Run % Run: 98%
- Initial HTS Run Visual Score: Dead
- Initial HTS Run mOD: 108 mOD
- 5 Day Visual Score V1: Dead
- 5 Day Visual Score V2: Dead
- 5 Day Visual Score V4: OK (no effect (˜1000+ progeny))
- 5 Day Visual Score V5: OK (no effect (˜1000+ progeny))
- 5 Day Visual Score V6: OK (no effect (˜1000+ progeny))

Compound: CN(CCc1ccccc1)c1nc(NC2CCCCCCCCCCC2)ns1 [compound 335]
- Follow-up HTS Run % Run: 86%
- Follow-up HTS Run Visual Score: Dead
- Follow-up HTS Run mOD: 139 mOD
- Initial HTS Run % Run: 97%
- Initial HTS Run Visual Score: Dead
- Initial HTS Run mOD: 107 mOD
- 5 Day Visual Score V1: Dead
- 5 Day Visual Score V6: < (reduced broodsize (250-500 progeny))

Compound: CN(Cc1ccccc1)c1nc(NC2CCCCCCCCCCC2)ns1 [compound 336]
- Follow-up HTS Run % Run: 90%
- Follow-up HTS Run mOD: 145 mOD
- Initial HTS Run % Run: 97%
- Initial HTS Run Visual Score: Dead/1AD/B!
- Initial HTS Run mOD: 107 mOD
- 5 Day Visual Score V1: Dead
- 5 Day Visual Score V2: Dead
- 5 Day Visual Score V4: OK (no effect (˜1000+ progeny))
- 5 Day Visual Score V5: OK (no effect (˜1000+ progeny))
- 5 Day Visual Score V6: OK (no effect (˜1000+ progeny))

Compound: COc1ccc(CCN(C)c2nc(NC3CCCCCCCCCCC3)ns2)cc1OC [compound 337]
- Follow-up HTS Run % Run: 68%
- Follow-up HTS Run Visual Score: Dead
- Follow-up HTS Run mOD: 110 mOD
- Initial HTS Run % Run: 90%
- Initial HTS Run Visual Score: Dead
- Initial HTS Run mOD: 99 mOD
- 5 Day Visual Score V1: Dead
- 5 Day Visual Score V2: Dead
- 5 Day Visual Score V3: Dead
- 5 Day Visual Score V4: B (low broodsize (25-100 progeny))
- 5 Day Visual Score V5: OK (no effect (˜1000+ progeny))
- 5 Day Visual Score V6: OK (no effect (˜1000+ progeny))

Compound: FC(F)(F)c1cccc(N2CCN(c3nc(Cl)ns3)CC2)c1 [compound 338]
- Follow-up HTS Run % Run: 116%
- Follow-up HTS Run Visual Score: B (low broodsize (25-100 progeny))
- Follow-up HTS Run mOD: 186 mOD
- Initial HTS Run % Run: 94%
- Initial HTS Run Visual Score: 3AD/B
- Initial HTS Run mOD: 103 mOD
- 5 Day Visual Score V1: Dead
- 5 Day Visual Score V3: < (reduced broodsize (250-500 progeny))
- 5 Day Visual Score V4: OK (no effect (˜1000+ progeny))
- 5 Day Visual Score V5: OK (no effect (˜1000+ progeny))
- 5 Day Visual Score V6: < (reduced broodsize (250-500 progeny))
